Activity calls are given as the source filed them.
Experiments:
[1] = target: Glyceraldehyde-3-phosphate dehydrogenase (Homo sapiens, UniProt P04406)
[2] = target: T1, Alkaline phosphatase, tissue-nonspecific isozyme (Homo sapiens, UniProt P05186); experiment: SAR assay for compounds inhibiting TNAP in the absence of phosphate acceptor performed in a luminescent assay. [Related pubchem assays (depositor defined):AID1548, AID1659, AID518]
T1 sequence (P05186 whole entry): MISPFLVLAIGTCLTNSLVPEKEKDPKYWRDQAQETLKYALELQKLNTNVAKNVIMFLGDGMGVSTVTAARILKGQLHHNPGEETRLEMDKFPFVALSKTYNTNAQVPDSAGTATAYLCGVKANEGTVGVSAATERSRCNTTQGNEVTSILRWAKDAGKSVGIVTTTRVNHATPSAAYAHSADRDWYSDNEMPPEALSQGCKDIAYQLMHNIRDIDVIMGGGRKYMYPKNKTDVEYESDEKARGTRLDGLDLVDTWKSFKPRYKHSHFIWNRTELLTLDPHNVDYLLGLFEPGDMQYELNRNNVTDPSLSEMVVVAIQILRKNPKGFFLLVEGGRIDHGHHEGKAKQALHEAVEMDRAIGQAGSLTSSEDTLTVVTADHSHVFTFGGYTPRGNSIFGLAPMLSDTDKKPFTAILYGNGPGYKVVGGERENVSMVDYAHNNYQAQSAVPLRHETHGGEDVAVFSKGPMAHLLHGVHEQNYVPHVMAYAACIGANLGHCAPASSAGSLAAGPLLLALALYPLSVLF

[3] = target: T1, Alkaline phosphatase, tissue-nonspecific isozyme; experiment: potency against alkaline phosphatase TNAP – biochemical, luminescent, dose response, SAR follow-up (AID 1056)
[4] = target: Signal transducer and activator of transcription 3 (Homo sapiens, UniProt P40763); experiment: STAT3 activation with BCL3 mRNA and toxicity – cell-based, […], BCL3 qPCR, cytotoxicity, late-stage follow-up, panel member STAT3 Activation (AID 2049)
Sequence of Signal transducer and activator of transcription 3 (P40763 whole entry): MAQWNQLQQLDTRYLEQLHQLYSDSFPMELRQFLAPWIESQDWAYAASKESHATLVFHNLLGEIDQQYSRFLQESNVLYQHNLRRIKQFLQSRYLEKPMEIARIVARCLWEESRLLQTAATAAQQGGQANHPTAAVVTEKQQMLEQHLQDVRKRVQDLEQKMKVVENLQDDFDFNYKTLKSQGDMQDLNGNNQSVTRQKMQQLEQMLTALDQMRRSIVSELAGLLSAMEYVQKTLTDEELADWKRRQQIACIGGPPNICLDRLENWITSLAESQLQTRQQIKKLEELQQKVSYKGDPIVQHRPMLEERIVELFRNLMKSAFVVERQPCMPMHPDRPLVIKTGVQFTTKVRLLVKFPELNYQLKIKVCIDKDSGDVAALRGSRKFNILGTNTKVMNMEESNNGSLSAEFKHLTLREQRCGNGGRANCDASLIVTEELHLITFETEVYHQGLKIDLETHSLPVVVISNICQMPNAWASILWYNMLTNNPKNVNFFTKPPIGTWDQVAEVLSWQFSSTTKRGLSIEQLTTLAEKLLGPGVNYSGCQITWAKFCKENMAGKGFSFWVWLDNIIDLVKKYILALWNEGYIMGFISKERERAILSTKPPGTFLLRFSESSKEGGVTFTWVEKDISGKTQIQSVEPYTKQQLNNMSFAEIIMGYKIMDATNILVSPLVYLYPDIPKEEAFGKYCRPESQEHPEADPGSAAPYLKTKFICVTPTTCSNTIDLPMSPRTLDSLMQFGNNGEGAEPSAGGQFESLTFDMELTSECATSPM

Cannabinoid receptor 1 [5] = target: T2, Cannabinoid receptor 1 (Homo sapiens, UniProt P21554); experiment: SAR analysis of antagonists of the Cannabinoid Receptor 1 using an Image-Based Assay - Set 3. [Related pubchem assays (depositor defined):AID1961, AID1965]; format: functional
T2 sequence (P21554 whole entry): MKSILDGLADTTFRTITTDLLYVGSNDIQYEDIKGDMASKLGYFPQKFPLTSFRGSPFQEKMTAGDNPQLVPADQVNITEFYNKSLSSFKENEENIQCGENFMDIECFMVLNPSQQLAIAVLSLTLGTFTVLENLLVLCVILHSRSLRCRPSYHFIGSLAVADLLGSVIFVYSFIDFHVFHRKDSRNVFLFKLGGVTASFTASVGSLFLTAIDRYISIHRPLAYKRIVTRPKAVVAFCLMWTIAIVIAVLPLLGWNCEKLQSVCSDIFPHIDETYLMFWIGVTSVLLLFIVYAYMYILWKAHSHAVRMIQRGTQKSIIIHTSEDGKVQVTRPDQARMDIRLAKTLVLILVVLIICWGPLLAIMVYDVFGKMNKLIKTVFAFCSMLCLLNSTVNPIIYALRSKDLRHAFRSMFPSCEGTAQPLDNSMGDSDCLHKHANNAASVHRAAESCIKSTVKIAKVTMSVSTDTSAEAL

[6] = target: G-protein coupled receptor 55 (Homo sapiens, UniProt Q9Y2T6); experiment: SAR analysis of selective Agonists of GPR55 using an Image-Based Assay - Set 2. [Related pubchem assays (depositor defined):AID1961, AID1965]; format: functional
Sequence of G-protein coupled receptor 55 (Q9Y2T6 whole entry): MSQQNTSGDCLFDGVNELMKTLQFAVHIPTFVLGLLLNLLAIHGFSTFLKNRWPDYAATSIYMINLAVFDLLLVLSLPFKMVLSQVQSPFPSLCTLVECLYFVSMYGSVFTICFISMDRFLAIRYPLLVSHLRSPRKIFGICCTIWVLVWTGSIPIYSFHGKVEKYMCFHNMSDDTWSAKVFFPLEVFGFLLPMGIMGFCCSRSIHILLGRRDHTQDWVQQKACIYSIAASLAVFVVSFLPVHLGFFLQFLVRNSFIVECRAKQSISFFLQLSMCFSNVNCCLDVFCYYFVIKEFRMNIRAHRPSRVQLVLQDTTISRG

Cannabinoid receptor 2 [7] = target: T3, Cannabinoid receptor 2 (Homo sapiens, UniProt P34972); experiment: SAR analysis of agonists of the Cannabinoid Receptor 2 using an Image-Based Assay - Set 2. [Related pubchem assays (depositor defined):AID1961, AID1965]; format: functional
T3 sequence (P34972 whole entry): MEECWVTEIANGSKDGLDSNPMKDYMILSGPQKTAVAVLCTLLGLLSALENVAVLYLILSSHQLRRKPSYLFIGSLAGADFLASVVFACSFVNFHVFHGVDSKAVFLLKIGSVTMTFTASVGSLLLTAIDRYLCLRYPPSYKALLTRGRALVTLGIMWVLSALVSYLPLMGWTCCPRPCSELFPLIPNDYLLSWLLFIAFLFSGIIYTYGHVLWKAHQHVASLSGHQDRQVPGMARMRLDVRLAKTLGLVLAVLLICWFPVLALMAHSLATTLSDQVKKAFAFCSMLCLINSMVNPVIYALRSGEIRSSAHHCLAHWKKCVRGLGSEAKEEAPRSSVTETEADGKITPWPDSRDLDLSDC

Cannabinoid receptor 1 [8] = target: T2, Cannabinoid receptor 1; experiment: SAR analysis of agonists of the Cannabinoid Receptor 1 using an Image-Based Assay - Set 3. [Related pubchem assays (depositor defined):AID1961, AID1965]; format: functional
[9] = target: T4, G-protein coupled receptor 35 (Homo sapiens, UniProt Q9HC97); experiment: SAR analysis of Agonists of the GPR35 Receptor using an Image-Based Assay - Set 3. [Related pubchem assays (depositor defined):AID1961, AID1965]; format: functional
T4 sequence (Q9HC97 whole entry): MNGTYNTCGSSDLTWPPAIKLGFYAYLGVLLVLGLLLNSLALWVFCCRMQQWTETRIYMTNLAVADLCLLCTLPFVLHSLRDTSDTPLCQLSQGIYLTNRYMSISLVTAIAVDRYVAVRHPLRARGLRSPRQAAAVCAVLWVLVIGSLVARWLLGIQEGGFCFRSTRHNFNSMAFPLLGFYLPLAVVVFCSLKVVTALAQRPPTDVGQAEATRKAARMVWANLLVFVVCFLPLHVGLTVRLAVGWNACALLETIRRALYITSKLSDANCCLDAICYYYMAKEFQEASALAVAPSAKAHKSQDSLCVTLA

[10] = target: T4, G-protein coupled receptor 35; experiment: SAR analysis of Antagonists of the GPR35 Receptor using an Image-Based Assay - Set 4. [Related pubchem assays (depositor defined):[…]]; format: functional
Cannabinoid receptor 2 [11] = target: T3, Cannabinoid receptor 2; experiment: SAR analysis of antagonists of the Cannabinoid Receptor 2 using an Image-Based Assay - Set 2. [Related pubchem assays (depositor defined):AID1961, AID1965]; format: functional
[12] = viability of PTEN-deleted HCT116 cells – cell-based, HCT116 PTEN knockout, dose response (AID 1047); format: functional;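 also: HCT116 colon tumor cells with PTEN knocked out; cells exposed to compound for 60 hours before readout; potency for loss of cell viability measured by luminescence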
X-box-binding protein 1 = target: T5, X-box-binding protein 1 (Homo sapiens, UniProt P17861); format: functional, Cricetulus griseus;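 also: confirmatory dose-response counter-screen serving a CHOP assay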
T5 sequence (P17861 whole entry): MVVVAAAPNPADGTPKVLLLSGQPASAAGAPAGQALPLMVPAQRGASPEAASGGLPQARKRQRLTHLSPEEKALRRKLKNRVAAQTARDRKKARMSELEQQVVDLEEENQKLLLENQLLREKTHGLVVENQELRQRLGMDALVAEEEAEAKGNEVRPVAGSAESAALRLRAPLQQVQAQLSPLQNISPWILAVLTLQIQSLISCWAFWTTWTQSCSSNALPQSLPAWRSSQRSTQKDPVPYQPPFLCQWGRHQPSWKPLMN

H4 = experiment: Luminescence Cell-Based Dose Response HTS to Identify Activators of 5'UTR Stem-Loop Driven Prion Protein mRNA Translation in H4 Neuroglioblastoma Cells. [Related pubchem assays: 1829 (Project Summary), 1814 (Primary HTS)]; format: functional; settings: Homo sapiens
[13] = target: T6, Heat shock 70 kDa protein 1A (Homo sapiens, UniProt P0DMV8); experiment: small molecules displacing fluorescent ligand from Hsp70 – biochemical, fluorescence polarization, primary screen (AID 583)
T6 sequence (P0DMV8 whole entry): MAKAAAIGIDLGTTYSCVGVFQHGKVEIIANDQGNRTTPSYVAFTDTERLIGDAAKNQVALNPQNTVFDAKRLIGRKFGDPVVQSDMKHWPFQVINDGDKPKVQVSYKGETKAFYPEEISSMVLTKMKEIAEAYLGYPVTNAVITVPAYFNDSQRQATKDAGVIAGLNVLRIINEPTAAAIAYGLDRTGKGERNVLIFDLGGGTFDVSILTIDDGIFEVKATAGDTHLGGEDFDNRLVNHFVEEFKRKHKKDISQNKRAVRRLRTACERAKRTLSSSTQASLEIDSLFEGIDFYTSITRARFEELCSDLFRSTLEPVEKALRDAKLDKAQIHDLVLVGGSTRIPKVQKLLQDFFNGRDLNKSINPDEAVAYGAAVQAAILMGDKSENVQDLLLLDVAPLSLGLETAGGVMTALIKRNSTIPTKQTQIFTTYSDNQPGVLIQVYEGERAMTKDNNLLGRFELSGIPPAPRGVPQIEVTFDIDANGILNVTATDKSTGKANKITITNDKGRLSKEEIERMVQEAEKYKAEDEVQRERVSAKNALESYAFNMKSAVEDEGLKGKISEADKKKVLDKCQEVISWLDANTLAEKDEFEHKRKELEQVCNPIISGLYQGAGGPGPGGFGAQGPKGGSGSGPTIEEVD

[14] = target: Protein-tyrosine kinase 2-beta (Homo sapiens, UniProt Q14289);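 also: potency of inhibitors of PYK2 kinase phosphorylation of poly-GT substrate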
Sequence of Protein-tyrosine kinase 2-beta (Q14289 whole entry): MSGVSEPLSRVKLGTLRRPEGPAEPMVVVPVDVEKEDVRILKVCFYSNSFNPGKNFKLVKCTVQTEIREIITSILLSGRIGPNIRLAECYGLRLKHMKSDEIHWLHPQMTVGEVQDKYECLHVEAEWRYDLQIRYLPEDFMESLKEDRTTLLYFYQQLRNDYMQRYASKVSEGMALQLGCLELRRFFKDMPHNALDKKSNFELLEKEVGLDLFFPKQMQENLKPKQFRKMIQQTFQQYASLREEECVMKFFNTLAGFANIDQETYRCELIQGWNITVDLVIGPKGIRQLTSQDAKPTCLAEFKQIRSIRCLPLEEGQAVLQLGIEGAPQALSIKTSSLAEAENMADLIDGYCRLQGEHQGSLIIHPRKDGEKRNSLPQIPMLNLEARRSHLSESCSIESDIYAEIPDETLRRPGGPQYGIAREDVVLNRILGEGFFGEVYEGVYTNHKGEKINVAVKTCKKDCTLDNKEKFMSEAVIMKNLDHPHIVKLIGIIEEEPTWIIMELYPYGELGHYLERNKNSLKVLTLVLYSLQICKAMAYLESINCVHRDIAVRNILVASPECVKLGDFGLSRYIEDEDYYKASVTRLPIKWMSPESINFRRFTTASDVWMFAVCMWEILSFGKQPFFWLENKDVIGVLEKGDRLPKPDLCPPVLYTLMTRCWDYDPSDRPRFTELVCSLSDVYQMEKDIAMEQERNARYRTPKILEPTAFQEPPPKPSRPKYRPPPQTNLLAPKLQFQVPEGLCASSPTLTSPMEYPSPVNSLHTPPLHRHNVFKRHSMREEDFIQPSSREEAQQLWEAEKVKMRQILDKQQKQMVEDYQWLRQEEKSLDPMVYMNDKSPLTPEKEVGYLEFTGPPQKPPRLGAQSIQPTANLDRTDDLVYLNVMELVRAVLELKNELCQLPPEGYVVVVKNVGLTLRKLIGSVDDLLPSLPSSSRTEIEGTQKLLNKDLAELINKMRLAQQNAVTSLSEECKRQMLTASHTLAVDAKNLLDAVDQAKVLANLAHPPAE

[15] = target: T6, Heat shock 70 kDa protein 1A; experiment: small-molecule inhibition of Hsp70 – biochemical, TR-FRET (AID 786)
[16] = viability of HCT116 lacking mutant beta-catenin – cell-based, human colon tumor, dose response (AID 1045); format: functional;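 also: HCT116 colon tumor cells with beta catenin knocked out; cells exposed to compound for 60 hours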
[17] = Luminescence Cell-Based Dose Response HTS to Identify Activators of Luciferase Translation or Activity in H4 […] Cells. [Related pubchem assays: 1829 (Project Summary), 1814 (Primary HTS)]; format: functional
[18] = Cytotoxicity screening for potential Inhibitors of Bacterial Capsule Biogenesis. [Related pubchem assays (depositor defined):AID488970]; format: functional
[19] = Luminescence Cell-Based Dose Confirmation HTS to Identify Activators of 5'UTR Stem-Loop Driven Alpha-Synuclein mRNA Translation in H4 Neuroglioblastoma Cells. [Related pubchem assays: 1829 (Project Summary), 1814 (Primary HTS)]; format: functional
Protein Rev = Protein Rev (Human immunodeficiency virus type 1 group M subtype B (isolate HXB2)(HIV-1), UniProt P04618); experiment: blockers of HIV Rev/RRE RNA complex – biochemical, fluorescence polarization, HIV-1, dose response (AID 434976); design: species or system Human immunodeficiency virus 1
Sequence of Protein Rev (P04618 whole entry): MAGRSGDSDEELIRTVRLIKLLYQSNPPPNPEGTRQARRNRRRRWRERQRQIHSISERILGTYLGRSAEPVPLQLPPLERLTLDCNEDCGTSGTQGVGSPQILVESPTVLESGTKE

[20] = target: Female germline-specific tumor suppressor gld-1 (Caenorhabditis elegans, UniProt Q17339); experiment: blockers of GLD-1/TGE RNA complex formation – biochemical, fluorescence polarization, C. elegans, dose response (AID 2802);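 also: fluorescence polarization of labeled TGE RNA bound by purified gld-1 protein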
Sequence of Female germline-specific tumor suppressor gld-1 (Q17339 whole entry): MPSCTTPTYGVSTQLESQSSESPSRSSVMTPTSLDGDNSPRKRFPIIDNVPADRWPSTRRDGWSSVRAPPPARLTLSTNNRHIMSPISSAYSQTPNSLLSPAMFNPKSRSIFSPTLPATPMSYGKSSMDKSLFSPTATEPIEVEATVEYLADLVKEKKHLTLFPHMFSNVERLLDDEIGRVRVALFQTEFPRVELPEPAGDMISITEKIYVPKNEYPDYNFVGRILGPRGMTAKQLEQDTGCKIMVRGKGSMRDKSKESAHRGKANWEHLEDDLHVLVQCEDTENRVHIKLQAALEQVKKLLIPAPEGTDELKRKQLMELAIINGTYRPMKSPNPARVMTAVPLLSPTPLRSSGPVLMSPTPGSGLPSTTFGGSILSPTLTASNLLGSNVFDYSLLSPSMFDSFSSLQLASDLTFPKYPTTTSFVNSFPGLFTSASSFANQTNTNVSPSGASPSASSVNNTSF

Sequence of Glyceraldehyde-3-phosphate dehydrogenase (P04406 whole entry): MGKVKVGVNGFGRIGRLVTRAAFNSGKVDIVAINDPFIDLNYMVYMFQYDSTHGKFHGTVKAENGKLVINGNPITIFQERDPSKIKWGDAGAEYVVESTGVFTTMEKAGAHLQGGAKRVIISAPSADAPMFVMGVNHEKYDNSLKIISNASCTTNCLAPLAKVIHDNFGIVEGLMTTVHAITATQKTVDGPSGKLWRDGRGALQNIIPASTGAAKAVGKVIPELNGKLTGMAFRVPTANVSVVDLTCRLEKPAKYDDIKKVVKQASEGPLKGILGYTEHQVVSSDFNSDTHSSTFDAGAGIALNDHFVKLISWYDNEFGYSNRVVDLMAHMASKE

## O=C(NCCO)c1cc(-c2ccc(Cl)c(Cl)c2Cl)n[nH]1
[1]
  IC50: > 10 µM (inconclusive)
[2]
  IC50: 0.00422 µM (active)
[3]
  IC50: 0.00744 µM (active)

## Nc1c(C(=O)Nc2ccccc2)noc1C(=O)c1ccccc1
[4]
  EC50: > 55.7 µM (inactive)

## O=C(Nc1cc(S(=O)(=O)N2CCOCC2)ccc1Cl)c1cc2c(s1)CCCC2
Cannabinoid receptor 1 [5]
  IC50: > 32 µM (inactive)
[6]
  EC50: 0.779 µM (active)
Cannabinoid receptor 2 [7]
  EC50: > 32 µM (inactive)
Cannabinoid receptor 1 [8]
  EC50: 7.87 µM (active)
[9]
  EC50: > 32 µM (inactive)
[10]
  IC50: > 32 µM (inactive)
Cannabinoid receptor 2 [11]
  IC50: > 32 µM (inactive)

## O=C(ONc1ccc(N=NC(=O)c2ccccc2O)cc1)c1ccccc1
[12]
  EC50: 20 µM (active)
X-box-binding protein 1
  Absolute IC50 (XBP1): 10 µM
H4
  EC50: 28.8 µM (active)
[13]
  IC50: 11.7 µM (active)
[14]
  IC50: 5.49 µM (active)
[15]
  IC50: > 100 µM (not active)
[16]
  EC50: 21.1 µM (active)
[17]
  EC50: 10.1 µM (active)
[18]
  CC50: 45.1 µM (active)
[19]
  EC50: > 120 µM (not active)

## COc1ccc(/C=C(\CC(=O)O)c2nc3ccccc3s2)cc1O
Protein Rev
  IC50: > 75.4 µM (not active)
[20]
  IC50: 2.43 µM (active)

Reference: ChEMBL document CHEMBL1201862, “PubChem BioAssay data set” (2004)
